Common to all, as to test: relative viability (nuclei count vs DMSO), 5 days (fraction); higher = more cells survive
Compound in experiment [1]: O=S(=O)(c1ccccc1)N(CC(F)(F)F)c1ccc(C(O)(C(F)(F)F)C(F)(F)F)cc1 + CC(=O)c1c(C)c2cnc(Nc3ccc(N4CCNCC4)cn3)nc2n(C2CCCC2)c1=O [Palbociclib] (partner 0.5 µM)
The essentials: (§1)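 Lung cancer cell lines were pin-tool dosed in 1536-well plates on the day after seeding, with either a lone drug or a fixed anchor-drug dose plus five library-drug doses (not always all listed) in √10 steps. Nuclei were counted on 4× images after 5 days. Relative viability is the ratio of treated-well to vehicle-well nuclei counts, with each value a median of duplicate plates.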

Compound in experiment [2]: C1=CC2=C(C=CC(=C2)C=C3C(=O)NC(=NCC4=CC=CS4)S3)N=C1 [RO-3306] + CC(=O)Nc1cccc(-n2c(=O)n(C3CC3)c(=O)c3c(Nc4ccc(I)cc4F)n(C)c(=O)c(C)c32)c1 [Trametinib] (partner 0.02 µM)
The method in brief: as §1

Compound in experiment [3]: O=S(=O)(c1ccccc1)N(CC(F)(F)F)c1ccc(C(O)(C(F)(F)F)C(F)(F)F)cc1 + CC(=O)Nc1cccc(-n2c(=O)n(C3CC3)c(=O)c3c(Nc4ccc(I)cc4F)n(C)c(=O)c(C)c32)c1 [Trametinib] (partner 0.02 µM)
The essentials:
as §1

Compound in experiment [4]: O=S(=O)(c1ccccc1)N(CC(F)(F)F)c1ccc(C(O)(C(F)(F)F)C(F)(F)F)cc1 + Cc1nc(Nc2ncc(C(=O)Nc3c(C)cccc3Cl)s2)cc(N2CCN(CCO)CC2)n1 [Dasatinib] (partner 0.075 µM)
The essentials: as §1

Compound in experiment [5]: C1=CC2=C(C=CC(=C2)C=C3C(=O)NC(=NCC4=CC=CS4)S3)N=C1 [RO-3306] + CS(=O)(=O)CCNCc1ccc(-c2ccc3ncnc(Nc4ccc(OCc5cccc(F)c5)c(Cl)c4)c3c2)o1 [Lapatinib] (partner 2 µM)
The method in brief: as §1

As to H3255, the relative viability in experiment [1] (first compound 0.8 µM) worked out at 0.319; in experiment [1] (first compound 2.53 µM) it was 0.313; in experiment [1] (first compound 8 µM), 0.28; in experiment [2] (first compound 0.01 µM), 0.791; in experiment [2] (first compound 0.03162 µM), 0.533; in experiment [2] (first compound 0.1 µM), 0.584. Moreover, the relative viability in experiment [2] (first compound 0.3162 µM) stood at 0.557; in experiment [2] (first compound 1 µM), 0.546; in experiment [3] (first compound 0.8 µM), 0.623; in experiment [3] (first compound 2.53 µM), 0.565; in experiment [3] (first compound 8 µM), 0.649; in experiment [4] (first compound 0.8 µM), 0.292. The relative viability came to 0.309 in experiment [4] (first compound 2.53 µM); 0.362 in experiment [4] (first compound 8 µM); 0.236 in experiment [5] (first compound 0.01 µM); 0.227 in experiment [5] (first compound 0.03162 µM); 0.245 in experiment [5] (first compound 0.1 µM); 0.26 in experiment [5] (first compound 0.3162 µM). In experiment [5] (first compound 1 µM), the relative viability stood at 0.26.

Turning to ABC-1, the relative viability came out at 0.656 in experiment [1] (first compound 2.53 µM); 0.714 in experiment [1] (first compound 8 µM); 0.649 in experiment [4] (first compound 0.8 µM); 0.531 in experiment [4] (first compound 2.53 µM); 0.654 in experiment [4] (first compound 8 µM); 1.25 in experiment [5] (first compound 0.01 µM). Besides, the relative viability in experiment [5] (first compound 0.03162 µM) was 1.28; in experiment [5] (first compound 0.1 µM), 1.17; in experiment [5] (first compound 0.3162 µM), 1.16; in experiment [5] (first compound 1 µM) it was 1.05.

Regarding LXF-289, the relative viability in experiment [1] (first compound 0.8 µM) worked out at 0.574; in experiment [1] (first compound 2.53 µM) it was 0.502; in experiment [1] (first compound 8 µM), 0.534; in experiment [2] (first compound 0.01 µM), 0.741; in experiment [2] (first compound 0.03162 µM), 0.63; in experiment [2] (first compound 0.1 µM), 0.647. Also, the relative viability in experiment [2] (first compound 0.3162 µM) came out at 0.673; in experiment [2] (first compound 1 µM), 0.695; in experiment [3] (first compound 0.8 µM), 0.582; in experiment [3] (first compound 2.53 µM), 0.532; in experiment [3] (first compound 8 µM), 0.518; in experiment [4] (first compound 0.8 µM), 0.163. The relative viability in experiment [4] (first compound 2.53 µM) was 0.141; in experiment [4] (first compound 8 µM), 0.153; in experiment [5] (first compound 0.01 µM), 0.918; in experiment [5] (first compound 0.03162 µM), 0.919; in experiment [5] (first compound 0.1 µM), 0.947; in experiment [5] (first compound 0.3162 µM), 0.893. For the same cell line, the relative viability in experiment [5] (first compound 1 µM) was determined as 0.787.

For the cell line NCI-H1975, the relative viability in experiment [1] (first compound 0.8 µM) came to 0.71; in experiment [1] (first compound 2.53 µM), 0.567; in experiment [1] (first compound 8 µM), 0.644; in experiment [2] (first compound 0.01 µM) it was 0.348; in experiment [2] (first compound 0.03162 µM), 0.319; in experiment [2] (first compound 0.1 µM), 0.309. Also, the relative viability in experiment [2] (first compound 0.3162 µM) was 0.33; in experiment [2] (first compound 1 µM), 0.331; in experiment [3] (first compound 0.8 µM), 0.341; in experiment [3] (first compound 2.53 µM), 0.338; in experiment [3] (first compound 8 µM) it was 0.316; in experiment [4] (first compound 0.8 µM), 0.353. Further, the relative viability in experiment [4] (first compound 2.53 µM) amounted to 0.339; in experiment [4] (first compound 8 µM), 0.298; in experiment [5] (first compound 0.01 µM), 1.05; in experiment [5] (first compound 0.03162 µM), 0.559; in experiment [5] (first compound 0.1 µM), 0.787; in experiment [5] (first compound 0.3162 µM), 0.919. Besides, the relative viability in experiment [5] (first compound 1 µM) stood at 0.752.

In the case of LCLC-97TM1, the relative viability in experiment [1] (first compound 2.53 µM) was determined as 0.206; in experiment [1] (first compound 8 µM), 0.236; in experiment [2] (first compound 0.01 µM) it was 0.214; in experiment [2] (first compound 0.03162 µM), 0.186; in experiment [2] (first compound 0.1 µM), 0.191; in experiment [2] (first compound 0.3162 µM), 0.204. Further, the relative viability in experiment [2] (first compound 1 µM) amounted to 0.165; in experiment [3] (first compound 2.53 µM), 0.234; in experiment [3] (first compound 8 µM), 0.165; in experiment [4] (first compound 0.8 µM), 0.724; in experiment [4] (first compound 2.53 µM) it was 0.734; in experiment [4] (first compound 8 µM) it was 0.682. Moreover, the relative viability in experiment [5] (first compound 0.03162 µM) is 0.794; in experiment [5] (first compound 0.1 µM) it was 0.949; in experiment [5] (first compound 0.3162 µM), 1.22; in experiment [5] (first compound 1 µM), 1.09.

With IA-LM, the relative viability in experiment [5] (first compound 0.01 µM) came out at 0.816; in experiment [5] (first compound 0.1 µM), 0.665; in experiment [5] (first compound 0.3162 µM), 0.698; in experiment [5] (first compound 1 µM) it was 0.388.

For HCC-15, the relative viability turned out to be 0.703 in experiment [1] (first compound 0.8 µM); 0.567 in experiment [1] (first compound 2.53 µM); 0.642 in experiment [1] (first compound 8 µM); 0.414 in experiment [2] (first compound 0.01 µM); 0.359 in experiment [2] (first compound 0.03162 µM); 0.374 in experiment [2] (first compound 0.1 µM). Moreover, the relative viability was determined as 0.36 in experiment [2] (first compound 0.3162 µM); 0.391 in experiment [2] (first compound 1 µM); 0.37 in experiment [3] (first compound 0.8 µM); 0.302 in experiment [3] (first compound 2.53 µM); 0.291 in experiment [3] (first compound 8 µM); 0.616 in experiment [4] (first compound 0.8 µM). Moreover, the relative viability in experiment [4] (first compound 2.53 µM) is 0.496; in experiment [4] (first compound 8 µM), 0.539; in experiment [5] (first compound 0.01 µM), 0.919; in experiment [5] (first compound 0.03162 µM), 0.779; in experiment [5] (first compound 0.1 µM), 0.84; in experiment [5] (first compound 0.3162 µM) it was 0.893. In addition, in experiment [5] (first compound 1 µM), the relative viability turned out to be 0.592.

On to NCI-H647, for which the relative viability in experiment [1] (first compound 0.8 µM) came out at 0.329; in experiment [1] (first compound 2.53 µM) it was 0.305; in experiment [1] (first compound 8 µM), 0.408; in experiment [2] (first compound 0.01 µM) it was 0.538; in experiment [2] (first compound 0.03162 µM) it was 0.38; in experiment [2] (first compound 0.1 µM), 0.457. The relative viability in experiment [2] (first compound 0.3162 µM) was 0.486; in experiment [2] (first compound 1 µM), 0.533; in experiment [3] (first compound 0.8 µM) it was 0.587; in experiment [3] (first compound 2.53 µM) it was 0.379; in experiment [3] (first compound 8 µM), 0.352; in experiment [4] (first compound 0.8 µM) it was 0.142. Besides, the relative viability in experiment [4] (first compound 2.53 µM) is 0.162; in experiment [4] (first compound 8 µM), 0.208; in experiment [5] (first compound 0.01 µM), 1.45; in experiment [5] (first compound 0.03162 µM) it was 0.881; in experiment [5] (first compound 0.1 µM), 0.974; in experiment [5] (first compound 0.3162 µM) it was 1.32. Besides, the relative viability in experiment [5] (first compound 1 µM) was determined as 0.783.

As to NCI-H1993, the relative viability in experiment [1] (first compound 0.8 µM) stood at 0.57; in experiment [1] (first compound 2.53 µM), 0.511; in experiment [1] (first compound 8 µM) it was 0.594; in experiment [2] (first compound 0.01 µM), 0.506; in experiment [2] (first compound 0.03162 µM) it was 0.546; in experiment [2] (first compound 0.1 µM), 0.6. The relative viability in experiment [2] (first compound 0.3162 µM) amounted to 0.533; in experiment [2] (first compound 1 µM) it was 0.439; in experiment [3] (first compound 0.8 µM), 0.554; in experiment [3] (first compound 2.53 µM), 0.457; in experiment [3] (first compound 8 µM), 0.478; in experiment [4] (first compound 0.8 µM), 0.451. For the same cell line, the relative viability is 0.441 in experiment [4] (first compound 2.53 µM); 0.544 in experiment [4] (first compound 8 µM); 0.747 in experiment [5] (first compound 0.03162 µM); 0.74 in experiment [5] (first compound 0.1 µM); 0.795 in experiment [5] (first compound 0.3162 µM); 0.839 in experiment [5] (first compound 1 µM).
